Source: US9051339B2, “Sulfur-containing bicyclic compound” (Astellas Pharma Inc., priority 2013, dated 2015)
pEC50: −log10 of the molar value.

How the values were obtained:
[1] = target: T1, heterodimers of GABAB1b and GABAB2 (Homo sapiens, UniProt O75899+Q9UBS5); test: FLIPR intracellular calcium mobilization in HEK293 cells stably expressing GABAB receptor; assay type: cell-based; details: 100 μM GABA = 100%; for pEC50: concentration raising reaction rate from 5% with 1 μM GABA to 50%, read-out: Potency (PAM Potency of GABAB); for Emax: maximum reaction rate in presence of 1 μM GABA, test drug up to 30 μM, read-out: Efficacy (PAM Efficacy of GABAB)
T1 construct: host or cells: HEK293
T1 sequence (Q9UBS5 1-844 isoform Q9UBS5-2): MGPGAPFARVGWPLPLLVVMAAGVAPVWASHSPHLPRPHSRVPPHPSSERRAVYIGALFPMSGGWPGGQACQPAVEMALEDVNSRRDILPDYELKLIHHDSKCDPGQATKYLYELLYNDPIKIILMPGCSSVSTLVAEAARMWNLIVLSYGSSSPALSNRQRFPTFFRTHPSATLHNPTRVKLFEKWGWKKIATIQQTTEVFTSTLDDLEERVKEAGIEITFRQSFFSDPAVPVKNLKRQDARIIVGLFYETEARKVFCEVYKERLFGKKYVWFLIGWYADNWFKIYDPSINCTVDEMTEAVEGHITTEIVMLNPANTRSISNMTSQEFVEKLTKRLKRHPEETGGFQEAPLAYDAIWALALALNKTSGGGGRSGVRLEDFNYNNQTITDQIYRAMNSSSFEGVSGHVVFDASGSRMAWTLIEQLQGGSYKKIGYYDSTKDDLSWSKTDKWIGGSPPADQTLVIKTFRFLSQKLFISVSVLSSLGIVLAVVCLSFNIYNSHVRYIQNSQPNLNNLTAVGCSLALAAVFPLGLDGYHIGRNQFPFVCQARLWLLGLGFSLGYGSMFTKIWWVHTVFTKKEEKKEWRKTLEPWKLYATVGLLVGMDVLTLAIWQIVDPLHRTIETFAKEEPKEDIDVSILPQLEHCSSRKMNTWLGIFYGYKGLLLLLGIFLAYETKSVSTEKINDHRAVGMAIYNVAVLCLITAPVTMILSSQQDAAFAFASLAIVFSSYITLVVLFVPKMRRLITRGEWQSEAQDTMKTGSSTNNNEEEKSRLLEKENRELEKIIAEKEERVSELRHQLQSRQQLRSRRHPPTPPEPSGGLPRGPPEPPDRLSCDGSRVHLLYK
T1 sequence (O75899 42-941): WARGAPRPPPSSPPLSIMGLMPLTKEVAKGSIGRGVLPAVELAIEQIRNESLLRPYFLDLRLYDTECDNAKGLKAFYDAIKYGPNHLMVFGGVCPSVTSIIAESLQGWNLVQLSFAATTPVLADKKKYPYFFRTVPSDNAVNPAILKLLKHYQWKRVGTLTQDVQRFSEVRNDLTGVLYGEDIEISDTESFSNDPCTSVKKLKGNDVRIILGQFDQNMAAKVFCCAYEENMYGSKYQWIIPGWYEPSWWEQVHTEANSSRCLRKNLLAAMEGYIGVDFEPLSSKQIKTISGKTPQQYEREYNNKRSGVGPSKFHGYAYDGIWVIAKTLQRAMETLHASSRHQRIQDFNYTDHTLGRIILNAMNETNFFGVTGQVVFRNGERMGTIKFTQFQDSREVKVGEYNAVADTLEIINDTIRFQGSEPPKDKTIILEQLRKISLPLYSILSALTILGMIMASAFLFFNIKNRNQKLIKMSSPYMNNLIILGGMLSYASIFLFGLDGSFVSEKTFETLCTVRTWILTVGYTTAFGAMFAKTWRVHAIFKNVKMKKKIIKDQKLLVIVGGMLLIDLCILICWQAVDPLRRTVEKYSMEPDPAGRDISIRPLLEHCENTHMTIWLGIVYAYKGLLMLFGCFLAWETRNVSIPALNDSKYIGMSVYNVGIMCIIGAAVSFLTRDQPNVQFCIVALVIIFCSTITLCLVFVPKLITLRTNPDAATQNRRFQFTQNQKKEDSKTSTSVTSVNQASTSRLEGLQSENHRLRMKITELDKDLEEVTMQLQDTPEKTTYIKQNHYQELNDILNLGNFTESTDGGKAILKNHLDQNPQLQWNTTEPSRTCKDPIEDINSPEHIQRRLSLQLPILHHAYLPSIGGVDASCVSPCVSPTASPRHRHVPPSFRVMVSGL
From the text: A natural GABAB receptor has a heterodimeric structure consisting of two kinds of subunits of GABAB1 and GABAB2 (Nature, 1997, vol. 386, p. 239-246) In the subunit of GABAB1, two major splice variants referred to as GABAB1a and 1b exist. However, the two variants have no difference in the pharmacological effects in the receptor-downstreaming signals (Nature, 1998, vol. 396, p. 683-687).
In HEK293 cells expressing the heterodimers of GABAB1b and GABAB2, the PAM action in the presence of GABA was measured over time with a change in the intracellular Ca^2+ concentration using RFU (relative fluorescence units) as an index, and evaluated.
All vectors, wherein each vector was formed by human GABAB1b (NM_021903. 2), GABAB2 (NM_005458. 7), or Gαqo chimera, were incorporated by lipofection to establish stably expressing human embryonic kidney-derived cell lines, HEK293 cells (ATCC).
The Gαqo chimera was fabricated by the following method. The genes coding human Gαq (NM_002072.3) were cloned, and C-terminal 15 base pairs (1107-1121 bp) of ORF (41-1121 bp) of Gaq was substituted with C-terminal 15 base pairs (1948-1962 bp) of ORF (898-1962 bp) of human Gao (NM_138736. 2) into a Gαqo chimera.
A change in the intracellular concentration of calcium mobilized due to activation of a GABAB receptor was measured with a Fluorometric Imaging Plate Reader (FLIPR, Molecular Devices). The stably expressing cells established as described above were proliferated in a D-MEM medium containing a screening agent (0.5 mg/mL G418 Disulfate and 0.2 mg/mL Hydromycin B solution), 1% penicillin/streptomycin, and 10% FCS. About 1×10^4 cells/well were diluted and seeded in a black-wall, 384-well poly-D-lysin-coated plate (Becton Dickinson) in a D-MEM medium containing 10% FCS, but not a selective agent and 1% penicillin/streptomycin. After 24 hours, the medium was removed from the plate, and a Fluo-4 loaded solution (20 μL) was added to each well, followed by incubation at room temperature for 2 hours. The fluorescent reagent loaded solution was removed from each well, the cells were washed with a base buffer three times, and then a base buffer (20 μL) was added thereto, followed by analysis with FLIPR TETRA (Molecular Devices). The base buffer (10 μL) solution of the test drug was added thereto to a final concentration (1 nM to 30 μM) and the measurement of a change in the fluorescence was initiated. Thereafter, GABA (1 μM, 20 μL) was added thereto and the measurement was continued. The change in the fluorescence was measured every two or five seconds.
The maximum reaction rate of 100 μM GABA was taken as 100%. […]

[2] = test system: pressure pain threshold in the gastrocnemius muscle; test: Pressure pain threshold in model with reserpine-induced muscle pain; assay type: in vivo; details: oral, measured after 30 minutes; male SD rat; reserpine 1 mg/kg s.c. for 3 days
Experimental: This model is a model that mimics the pathological conditions of fibromyalgia. This test was carried out on the basis of the description in Pain, 2009, vol. 146, p. 26-33. Reserpine (1 mg/kg) was subcutaneously administered to the male SD rat (Japan SLC, Inc.)) once per day for 3 days. After 5 days, the solvent or the test drug was orally administered. After 30 minutes, the pressure pain threshold value was measured using a Randall-Selitto instrument (Muromachi Kikai Co., Ltd.) in the gastrocnemius muscle. The significant difference assay between the solvent group and the group administered with the test drug was carried out by comparison between the groups using a Student's t-test or a Dunnett's multiple comparison test. Here, the value obtained by administering a solvent to a normal rat not administered with reserpine was taken as 100%, and the value of the reserpine group administered with a solvent was taken as 0%. In each assay, if p<0.05 was satisfied, it was determined that there was a significant difference.

pEC50 [1]	Emax [1] [%]	Structure (SMILES)	MED [2] [mg/kg]
6.66	273	Cc1nc(CN2CC[C@@H](O)[C@H](O)C2)c2cc(C3CCC(C)(C)CC3)sc2n1 (single isomer, unassigned) [Ex31, trans-1-{[6-(4,4-dimethylcyclohexyl)-2-methylthieno[2,3-d]pyrimidin-4-yl]methyl}piperidine-3,4-diol]	–
7.23	470	Cc1nc(CN2CCS(=O)(=O)CC2)c2cc(C3CCC(C)(C)CC3)sc2n1 [Ex2, 6-(4,4-dimethylcyclohexyl)-4-[(1,1-dioxidothiomorpholin-4-yl)methyl]-2-methylthieno[2,3-d]pyrimidine]	0.03
